# Measured values: the NIST ThermoML archive (doi:10.1016/j.jct.2010.07.001)
# Numbers after ± are expanded uncertainties.
# What was measured:
# [1] = Crystal; DTA
# [2] = Molar enthalpy of transition or fusion; details: Crystal; DSC
SMILES,Normal melting temperature [1] [°C],Molar enthalpy of transition or fusion [2] [kcal/mol]
CC(C)(C)NCC(O)COc1cccc2c1CC(O)C(O)C2 (configuration not stated),130.2 ± 2.1,12.7 ± 0.335
"C[C@]12CC[C@@H]3c4ccc(O)cc4CC[C@H]3[C@@H]1CCC2=O [3-hydroxy-1,3,5(10)-estratrien-17-one]",254.0 ± 2.1,10.8 ± 0.287
CS(=O)(=O)Nc1ccc([N+](=O)[O-])cc1Oc1ccccc1 [nimesulide],149.1 ± 2.1,11.3 ± 0.311
"Cc1cccc(Nc2ccccc2C(=O)O)c1C [2-((2,3-dimethylphenyl)amino)benzoic acid]",230.0 ± 2.1,17 ± 9.56

# Continued, values first:
Normal melting temperature [1] [°C],Molar enthalpy of transition or fusion [2] [kcal/mol],SMILES
151.4 ± 2.1,8.75 ± 0.239,CC(C)NCC(O)COc1ccc(CC(N)=O)cc1 (configuration not stated) [2-(4-(2-hydroxy-3-(isopropylamino)propoxy)phenyl)acetamide]
150 ± 2.1,8.96 ± 0.239,"c1ccc(-c2ccc(C(c3ccccc3)n3ccnc3)cc2)cc1 (configuration not stated) [1-([1,1'-biphenyl]-4-yl(phenyl)methyl)-1H-imidazole]"
